Experiments:
Type in all cases: in vivo
[1] = test system: redroot pigweed (Amaranthus retroflexus); assay: Test G Post-Emergence Protocol; conditions: Amaranthus retroflexus, post-emergence, 312 h, read-out: Pigweed, Redroot damage rating; for pest or weed control at 15.625 g/ha: 15.625 g ai/ha, evaluated after 13 days (100=total damage to plant; 0=no damage to plant); for pest or weed control at 62.5 g/ha: 62.5 g ai/ha; for pest or weed control at 62.5 g/ha / pest or weed control at 250 g/ha: evaluated after 13 days, 100=total damage to plant, 0=no damage to plant; for pest or weed control at 250 g/ha: 250 g ai/ha
Summary of the method: (§1)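 Eight days post-sowing, plants received a spray of test compound (acetone/water 50:50, 0.5% Tween 20) at 15.625, 62.5 or 250 g/ha. Glasshouse regime thereafter: 24/16 °C, 14 h light, 65% humidity. Assessment after 13 days on a 0–100 damage scale.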

[2] = test system: velvetleaf (Abutilon theophrasti); assay: Test G Post-Emergence Protocol; conditions: Abutilon theophrasti, post-emergence, 312 h, read-out: Velvetleaf damage rating; for pest or weed control at 15.625 g/ha: 15.625 g ai/ha, evaluated after 13 days (100=total damage to plant; 0=no damage to plant); for pest or weed control at 62.5 g/ha: 62.5 g ai/ha; for pest or weed control at 62.5 g/ha / pest or weed control at 250 g/ha: evaluated after 13 days, 100=total damage to plant, 0=no damage to plant; for pest or weed control at 250 g/ha: 250 g ai/ha
Summary of the method: as §1

[3] = test system: corn (Zea mays); assay: Test G Post-Emergence Protocol; conditions: Zea mays, post-emergence, 312 h, read-out: Corn damage rating; for plant injury at 15.625 g/ha: 15.625 g ai/ha, evaluated after 13 days (100=total damage to plant; 0=no damage to plant); for plant injury at 62.5 g/ha: 62.5 g ai/ha; for plant injury at 62.5 g/ha / plant injury at 250 g/ha: evaluated after 13 days, 100=total damage to plant, 0=no damage to plant; for plant injury at 250 g/ha: 250 g ai/ha
Summary of the method: as §1

[4] = test system: giant foxtail (Setaria faberi); assay: Test G Post-Emergence Protocol; conditions: Setaria faberi, post-emergence, 312 h, read-out: Foxtail, Giant damage rating; for pest or weed control at 15.625 g/ha: 15.625 g ai/ha, evaluated after 13 days (100=total damage to plant; 0=no damage to plant); for pest or weed control at 62.5 g/ha: 62.5 g ai/ha; for pest or weed control at 62.5 g/ha / pest or weed control at 250 g/ha: evaluated after 13 days, 100=total damage to plant, 0=no damage to plant; for pest or weed control at 250 g/ha: 250 g ai/ha
Summary of the method: as §1

[5] = test system: ivy-leaved morning glory (Ipomoea hederacea); assay: Test G Post-Emergence Protocol; conditions: Ipomoea, post-emergence, 312 h, read-out: Morningglory, Ivy-leaved damage rating; for pest or weed control at 15.625 g/ha: 15.625 g ai/ha, evaluated after 13 days (100=total damage to plant; 0=no damage to plant); for pest or weed control at 62.5 g/ha: 62.5 g ai/ha; for pest or weed control at 62.5 g/ha / pest or weed control at 250 g/ha: evaluated after 13 days, 100=total damage to plant, 0=no damage to plant; for pest or weed control at 250 g/ha: 250 g ai/ha
Summary of the method: as §1

[6] = test system: barnyardgrass (Echinochloa crus-galli); assay: Test G Post-Emergence Protocol; conditions: Echinochloa crus-galli, post-emergence, 312 h, read-out: Barnyardgrass damage rating; for pest or weed control at 15.625 g/ha: 15.625 g ai/ha, evaluated after 13 days (100=total damage to plant; 0=no damage to plant); for pest or weed control at 62.5 g/ha: 62.5 g ai/ha; for pest or weed control at 62.5 g/ha / pest or weed control at 250 g/ha: evaluated after 13 days, 100=total damage to plant, 0=no damage to plant; for pest or weed control at 250 g/ha: 250 g ai/ha
Summary of the method: as §1

[7] = test system: redroot pigweed (Amaranthus retroflexus); assay: Test G Pre-Emergence Protocol; conditions: Amaranthus retroflexus, pre-emergence, 312 h, evaluated after 13 days; for pest or weed control at 15.625 g/ha: 15.625 g ai/ha; for pest or weed control at 15.625 g/ha / pest or weed control at 250 g/ha: read-out: Pigweed, Redroot damage rating (100=total damage to plant; 0=no damage to plant); for pest or weed control at 62.5 g/ha: 62.5 g ai/ha, 100=total damage to plant, 0=no damage to plant, read-out: Pigweed, Redroot damage rating; for pest or weed control at 250 g/ha: 250 g ai/ha
Summary of the method: (§2)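 Scores are visual damage ratings from 0 (no damage) to 100 (total plant kill), taken 13 days after treatment. Compound was sprayed one day post-sowing at 15.625, 62.5 or 250 g/ha in 50:50 acetone/water with 0.5% Tween 20.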

[8] = test system: velvetleaf (Abutilon theophrasti); assay: Test G Pre-Emergence Protocol; conditions: Abutilon theophrasti, pre-emergence, 312 h, evaluated after 13 days; for pest or weed control at 15.625 g/ha: 15.625 g ai/ha; for pest or weed control at 15.625 g/ha / pest or weed control at 250 g/ha: read-out: Velvetleaf damage rating (100=total damage to plant; 0=no damage to plant); for pest or weed control at 62.5 g/ha: 62.5 g ai/ha, 100=total damage to plant, 0=no damage to plant, read-out: Velvetleaf damage rating; for pest or weed control at 250 g/ha: 250 g ai/ha
Summary of the method: as §2

[9] = test system: corn (Zea mays); assay: Test G Pre-Emergence Protocol; conditions: Zea mays, pre-emergence, 312 h, evaluated after 13 days; for plant injury at 15.625 g/ha: 15.625 g ai/ha; for plant injury at 15.625 g/ha / plant injury at 250 g/ha: read-out: Corn damage rating (100=total damage to plant; 0=no damage to plant); for plant injury at 62.5 g/ha: 62.5 g ai/ha, 100=total damage to plant, 0=no damage to plant, read-out: Corn damage rating; for plant injury at 250 g/ha: 250 g ai/ha
Summary of the method: as §2

[10] = test system: giant foxtail (Setaria faberi); assay: Test G Pre-Emergence Protocol; conditions: Setaria faberi, pre-emergence, 312 h, evaluated after 13 days; for pest or weed control at 15.625 g/ha: 15.625 g ai/ha; for pest or weed control at 15.625 g/ha / pest or weed control at 250 g/ha: read-out: Foxtail, Giant damage rating (100=total damage to plant; 0=no damage to plant); for pest or weed control at 62.5 g/ha: 62.5 g ai/ha, 100=total damage to plant, 0=no damage to plant, read-out: Foxtail, Giant damage rating; for pest or weed control at 250 g/ha: 250 g ai/ha
Summary of the method: as §2

[11] = test system: ivy-leaved morning glory (Ipomoea hederacea); assay: Test G Pre-Emergence Protocol; conditions: Ipomoea, pre-emergence, 312 h, evaluated after 13 days; for pest or weed control at 15.625 g/ha: 15.625 g ai/ha; for pest or weed control at 15.625 g/ha / pest or weed control at 250 g/ha: read-out: Morningglory, Ivy-leaved damage rating (100=total damage to plant; 0=no damage to plant); for pest or weed control at 62.5 g/ha: 62.5 g ai/ha, 100=total damage to plant, 0=no damage to plant, read-out: Morningglory, Ivy-leaved damage rating; for pest or weed control at 250 g/ha: 250 g ai/ha
Summary of the method: as §2

[12] = test system: barnyardgrass (Echinochloa crus-galli); assay: Test G Pre-Emergence Protocol; conditions: Echinochloa crus-galli, pre-emergence, 312 h, evaluated after 13 days; for pest or weed control at 15.625 g/ha: 15.625 g ai/ha; for pest or weed control at 15.625 g/ha / pest or weed control at 250 g/ha: read-out: Barnyardgrass damage rating (100=total damage to plant; 0=no damage to plant); for pest or weed control at 62.5 g/ha: 62.5 g ai/ha, 100=total damage to plant, 0=no damage to plant, read-out: Barnyardgrass damage rating; for pest or weed control at 250 g/ha: 250 g ai/ha
Summary of the method: as §2

SMILES	pest or weed control at 15.625 g/ha [1] [%]	pest or weed control at 62.5 g/ha [1] [%]	pest or weed control at 250 g/ha [1] [%]	pest or weed control at 15.625 g/ha [2] [%]	pest or weed control at 62.5 g/ha [2] [%]	pest or weed control at 250 g/ha [2] [%]	plant injury at 15.625 g/ha [3] [%]	plant injury at 62.5 g/ha [3] [%]	plant injury at 250 g/ha [3] [%]	pest or weed control at 15.625 g/ha [4] [%]	pest or weed control at 62.5 g/ha [4] [%]	pest or weed control at 250 g/ha [4] [%]	pest or weed control at 15.625 g/ha [5] [%]	pest or weed control at 62.5 g/ha [5] [%]	pest or weed control at 250 g/ha [5] [%]	pest or weed control at 15.625 g/ha [6] [%]	pest or weed control at 62.5 g/ha [6] [%]	pest or weed control at 250 g/ha [6] [%]	pest or weed control at 15.625 g/ha [7] [%]	pest or weed control at 62.5 g/ha [7] [%]	other results
CC(O)c1ccccc1NC(=O)[C@H]1C(=O)N(C)C[C@@H]1c1cccc(C(F)(F)F)c1 (mixture of isomers) [Compound 1783]	0	0	20	0	20	50	70	80	80	80	80	80	10	60	70	70	80	80	0	0	pest or weed control at 250 g/ha [7]: 40%; pest or weed control at 15.625 g/ha [8]: 0%; pest or weed control at 62.5 g/ha [8]: 10%; pest or weed control at 250 g/ha [8]: 70%; plant injury at 15.625 g/ha [9]: 50%; plant injury at 62.5 g/ha [9]: 80%; plant injury at 250 g/ha [9]: 90%; pest or weed control at 15.625 g/ha [10]: 80%; pest or weed control at 62.5 g/ha [10]: 90%; pest or weed control at 250 g/ha [10]: 90%; pest or weed control at 15.625 g/ha [11]: 10%; pest or weed control at 62.5 g/ha [11]: 10%; pest or weed control at 250 g/ha [11]: 40%; pest or weed control at 15.625 g/ha [12]: 50%; pest or weed control at 62.5 g/ha [12]: 90%; pest or weed control at 250 g/ha [12]: 90%
CN1CCCC(NC(=O)[C@H]2C(=O)N(C)C[C@@H]2c2ccc(C(F)(F)F)cc2)C1=O (mixture of isomers) [Compound 1674]	0	0	0	0	0	0	0	0	0	0	0	20	0	0	0	0	0	0	0	0	pest or weed control at 250 g/ha [7]: 0%; pest or weed control at 15.625 g/ha [8]: 0%; pest or weed control at 62.5 g/ha [8]: 0%; pest or weed control at 250 g/ha [8]: 0%; plant injury at 15.625 g/ha [9]: 0%; plant injury at 62.5 g/ha [9]: 0%; plant injury at 250 g/ha [9]: 0%; pest or weed control at 15.625 g/ha [10]: 0%; pest or weed control at 62.5 g/ha [10]: 0%; pest or weed control at 250 g/ha [10]: 0%; pest or weed control at 15.625 g/ha [11]: 0%; pest or weed control at 62.5 g/ha [11]: 0%; pest or weed control at 250 g/ha [11]: 0%; pest or weed control at 15.625 g/ha [12]: 0%; pest or weed control at 62.5 g/ha [12]: 0%; pest or weed control at 250 g/ha [12]: 0%
CN1C[C@H](c2cc(C(F)(F)F)cc(C(F)(F)F)c2)[C@@H](C(=O)Nc2ccccc2S(C)(=O)=O)C1=O (racemic) [Compound 1794]	0	40	70	0	0	10	20	50	70	0	60	80	20	50	70	0	40	70	0	0	pest or weed control at 250 g/ha [7]: 80%; pest or weed control at 15.625 g/ha [8]: 0%; pest or weed control at 62.5 g/ha [8]: 0%; pest or weed control at 250 g/ha [8]: 0%; plant injury at 15.625 g/ha [9]: 30%; plant injury at 62.5 g/ha [9]: 50%; plant injury at 250 g/ha [9]: 80%; pest or weed control at 15.625 g/ha [10]: 30%; pest or weed control at 62.5 g/ha [10]: 60%; pest or weed control at 250 g/ha [10]: 90%; pest or weed control at 15.625 g/ha [11]: 0%; pest or weed control at 62.5 g/ha [11]: 0%; pest or weed control at 250 g/ha [11]: 10%; pest or weed control at 15.625 g/ha [12]: 0%; pest or weed control at 62.5 g/ha [12]: 40%; pest or weed control at 250 g/ha [12]: 80%

— patent US12077503B2, “Substituted cyclic amides and their use as herbicides” (FMC CORPORATION, priority 2015, dated 2024)
